Here are results for one compound from patent US20200384007A1, “LIPID NANOPARTICLES CONTAINING PHARMACEUTICAL AND/OR NUTRACEUTICAL AGENTS AND METHODS THEREOF” (Board of Regents, The University of Texas System, priority 2019, published 2020).

Series [1] in a line: Physical and chemical stability as lyophilized powder or dry waxy solid at room temperature. The following applies: DHA-dFdC-vitamin E (5.047% w/w) waxy solid mixture, 14 days. In kind it is physicochemical. As for the experimental part:
A 30% (w/v) stock solution of sucrose as lyoprotectant was prepared with de-ionized and filtered (0.2 μm) water. 900 μL DHA-dFdC-SLNs in water suspension was mixed with 100 μL sucrose solution to obtain a final suspension having 3% (w/v) sucrose. DHA-dFdC-SLNs in suspension were stored at −20° C. for 30 min, transferred to −80° C. for 60 min, and finally transferred to a VirTis Advantage bench top tray lyophilizer (The VirTis Company, Inc. Gardiner, N.Y.). Lyophilization was performed over 72 hours (h) at pressure less than 200 mTorr under nitrogen atmosphere. The shelf temperature was gradually ramped from −40° C. to 26° C. After lyophilization, samples were sealed and stored in a desiccator at room temperature, protected from light.
To evaluate the physical and chemical stability of DHA-dFdC-SLNs in lyophilized powder, DHA-dFdC was extracted from the powder 0, 7, and 30 days post-storage. Lyophilized samples were reconstituted in 1 mL de-ionized and filtered (0.2 μm) water. […] The sample was re-dissolved in 100 μL of THF, and concentration was measured by HPLC.
As a control, DHA-dFdC was dissolved in ethanol and mixed with vitamin E at a final concentration of 5.047% (w/w) (Naguib et al., Neoplasia, 2016; 18(1):33-48). The solution was dried under nitrogen, sealed, and stored at room temperature, protected from light, and the content of DHA-dFdC was measured at various time points

Series [2] concerns B16-F10 cells. The series can be described thus: In vitro cytotoxicity assay (MTT). In kind it is cell-based, murine. To be noted: Mus musculus, B16F10 cells, 48 h of incubation. As for the experimental part:
(§1) Cytotoxicity of DHA-dFdC-SLNs was evaluated in TC-1, B16-F10, and M-Wnt cells. Cells were seeded into 96-well plates (4000 cells/well for TC-1 and B16-F10 cells, 1000 cells/well for M-Wnt cells) and incubated at 37° C., 5% CO2 overnight. Cells were treated with various concentrations of DHA-dFdC, DHA-dFdC-SLNs, DHA-dFdC-free SLNs, or dimethyl sulfoxide (DMSO) for up to 48 h. As a control, cells were treated with fresh medium. Cell survival was determined using an MTT assay (Naguib et al., Mol. Pharma., 2014; 11(4):1239-1249). DHA-dFdC was dissolved in DMSO and diluted with cell culture media, whereas DHA-dFdC-SLNs and DHA-dFdC-free SLNs were dispersed directly in cell culture media.

The test system of series [3] is M-Wnt cells. The series can be described thus: In vitro cytotoxicity assay (MTT). In kind it is cell-based, murine. The following applies: Mus musculus, 24 h of incubation. As for the experimental part: as §1
Series [4] concerns B16-F10 tumors. The series can be described thus: Antitumor activity of i.v. DHA-dFdC-SLNs in a mouse model. The format is in vivo. The following applies: 50 mg/kg DHA-dFdC on days 7, 10, 13, 16. On the procedure:
Female C57BL/6 mice (18-20 g, 6-8 weeks) were subcutaneously (s.c.) injected with B16-F10 (5×10^5 cells/mouse) in the right flank on day 0. Seven days later, mice were randomized in 5 groups (n=5-6) and i.v. injected with DHA-dFdC (1 mg/mouse, equivalent to 50 mg/kg) dissolved a vehicle solution (Tween 80 (10%, w/v), ethanol (5.2%, v/v), and mannitol (5%, w/v) in water), the vehicle solution (as a control) (Naguib et al., Neoplasia, 2016; 18(1):33-48; Valdes et al., Pharma. Res., 2017; 34(6):1224-1232), DHA-dFdC-SLNs (equivalent to 1 mg of DHA-dFdC/mouse), or the equivalent dose of DHA-dFdC-free SLNs; both SLNs were dispersed in sterile mannitol 5%, (w/v). As a control, one group of mice were left untreated. Treatments were repeated every 3 days for a total of 4 times. Mouse health and tumor growth were monitored daily. Tumor size was measured 2-3 times a week, and tumor volume was calculated as: volume (mm^3)=(length×width^2)/2. Mice were euthanized 17 days after B16-F10 cell injection, and tumor tissues were collected for histology study. For untreated mice, the length of some of the tumors reached 15 mm before day 17 and had to be euthanized earlier.

Series [5] concerns B16-F10 tumors. The experiment in a line: Histology (H&E) of tumor tissues. The format is in vivo, C57BL/6 mice. To be noted: tumors collected on day 17 after i.v. treatment. From the text: Tumor tissues were fixed in formalin, embedded, and stained with hematoxylin and eosin (H&E) in the Histological and Tissue Analysis Facility in the Dell Pediatric Research Institute at The University of Texas at Austin.

Series [6] can be described thus: Pharmacokinetic studies, oral and i.v. (Example 2). The format is in vivo, C57BL/6 mice. On the procedure:
The Institutional Animal Care and Use Committee at The University of Texas at Austin approved the animal protocol. Female C57BL/6 mice (6-8 weeks, Charles River Laboratories, Wilmington, Mass.) were fasted for 3 h. Water was allowed ad libitum. Mice were orally gavaged with DHA-dFdC dissolved in a vehicle solution (Tween 80 (10%, w/v), ethanol (5.2% v/v), and mannitol (5%, w/v) in sterile water) (Naguib, et al., Neoplasia, 2016, 18, (1), 33-48; Valdes, et al., Pharma. Res., 2017, 34, (6), 1224-1232) or the DHA-dFdC-SLNs suspended in a sterile mannitol solution (5%, w/v), or intravenously injected with the DHA-dFdC-SLNs suspended in a sterile mannitol solution (5%, w/v). The dose of DHA-dFdC was 2 mg per mouse. Mice (n=3) were euthanized at various time points (e.g., 0.25, 0.5, 1, 2, 5, 8, 12, and 24 h). Blood was collected into heparin-coated tubes, which were then centrifuged at 13,000 rcf for 20 min to isolate plasma. The plasma (200 μL) was mixed with 200 μL of isopropanol and 200 μL of cold PBS, vortexed and then incubated at 4° C. for 5 min Following incubation, 1000 μl of ethyl acetate was added. The mixture was vortexed for 5 min, followed by centrifugation at 18,000 rcf for 5 min. The supernatant was collected and dried under nitrogen. Finally, the residue was re-dissolved in 100 μl of THF, which was then analyzed using HPLC (Naguib, et al., Neoplasia, 2016, 18, (1), 33-48). As internal control 4-(N)-stearoyl 2′,2′-difluorodeoxycytidine (GemC18) was added in the samples before extraction (Sloat, et al., Intl. J. Pharma., 2011, 409, (1), 278-288). Data were analyzed using PK Solver®, assuming a two-compartmental model (Wang, et al., Oncotarget, 2017, 8, (52), 89876).

Series [7] has as its system B16-F10 tumors. The experiment in a line: Antitumor activity of orally administered DHA-dFdC-SLNs in tumor-bearing mice (survival). The format is in vivo. To be noted: oral gavage. On the procedure:
Female C57BL/6 mice (18-20 g) were subcutaneously (s.c) injected with B16-F10 (5×10^5 cells/mouse) in the right flank on day 0. Seven days later, mice were randomized into 4 groups (n=7-8) and orally gavaged with DHA-dFdC (250 μg/mouse) dissolved in vehicle (Naguib, et al., Neoplasia, 2016, 18, (1), 33-48; Valdes, et al., Pharma. Res., 2017, 34, (6), 1224-1232), DHA-dFdC-SLNs (250 μg/mouse of DHA) dispersed in mannitol 5%, or DHA-dFdC-free SLNs dispersed in mannitol 5%. As a control, one group of mice were left untreated. Treatment was repeated every day until day 11. Mice were allowed to rest for two days, and treatment was resumed on day 13 and continued until day 20. Mice were monitored daily until the endpoint (e.g., death, tumor size reaching 15 mm, tumor ulceration, body weight loss of more than 20%, or other signs of severe distress and discomfort).

For series [8] the following is noted: in water; cited from earlier work.
For series [9] the following is noted: in an aqueous solution, DBA/2 mice; cited from earlier work.
The subject of series [10] is NCI-60 DTP human tumor cell lines. The following applies: cited from earlier work.
For series [11], the system named is pancreatic tumor. To be noted: several mouse models of pancreatic cancer; cited from earlier work.
[12] abbreviates: oral administration, 2 mg DHA-dFdC per mouse.

Like-named read-outs stand apart in the source and are kept apart here.

In the case of `CC/C=C\C/C=C\C/C=C\C/C=C\C/C=C\C/C=C\CCC(=O)Nc1ccn(C2OC(CO)C(O)C2(F)F)c(=O)n1` (stereo not shown) [DHA-dFdC, 4-(N)-docosahexaenoyl 2′, 2′-difluorodeoxycytidine], the “DHA-dFdC left after storage” value in series [1] was 19.1%±7.0. Besides, the IC50 – broadly, the concentration needed to halve the response being measured – in series [2] turned out to be 1.81 µM. This compound displayed a concentration for half-maximal inhibition (IC50) in series [3] of 2.15 µM. Also, in [4], the tumor growth delay is listed as 4 days and the “tumor size / control of tumor growth versus comparison groups” value is “no significant difference”. For the same compound, in series [5], the “H&E histology findings in tumors” value is “vascular collapse, high desmoplasia, and necrotic areas”. In series [6] (female, C57BL/6, mouse, plasma, 2 mg per mouse, oral, in Tween 80/ethanol/water solution), the bioavailability (in general, dose-corrected exposure relative to a reference, in per cent) turned out to be 54%. Also, in [6] (female, C57BL/6, mouse, plasma, po, 2 mg, oral administration, 2 mg DHA-dFdC per mouse, read-out: Tmax), the Tmax – broadly, the time from dosing to the highest level – was determined as 1.7 h. Besides, in series [6] (female, C57BL/6, plasma, oral administration, 2 mg DHA-dFdC per mouse), the peak concentration (Cmax) (commonly the peak of the concentration-time curve) stood at 10500 ng/mL. The AUC(0-t) in [6] (female, C57BL/6, plasma, oral administration, 2 mg DHA-dFdC per mouse, read-out: AUC 0-24) turned out to be 114 µg·h/mL. Also, in [6] (setting [12]), the T1/2α turned out to be 1.07 h, the Tmax is 1.75 h and the k12 is 0.56 h⁻¹. In addition, the “survival compared to untreated mice” value in series [7] (250 μg DHA-dFdC per mouse daily for 12 days) is “did not significantly affect mouse survival”. Moreover, the “mice showing signs of toxicity (body weight decrease of more than 20% or severe tumor ulceration)” value in series [7] (in Tween 80/ethanol/water solution, 250 μg per mouse daily) is given as 62.5%. In addition, the intrinsic solubility in series [8] is around 25 µg/mL. The “repeat dose-maximum tolerated dose” value in series [9] is 50 mg/kg. For the same compound, the antitumor activity result in series [10] is “potent and broad spectrum antitumor activity”. For the same compound, the “control of pancreatic tumor growth versus gemcitabine” value in series [11] is recorded as “significantly more effective than the molar equivalent dose of gemcitabine”.
